Data taken from PMC3004780 (Journal of nuclear medicine : official publication, Society …, 2009).

Assays:
[1] = tested on: Klebsiella pneumoniae lung inflammation model; assay type: in vivo, mouse; details: excised tissue, 18 hr post injection, control n=4, Klebsiella-infected n=6 mice
[2] = mouse, in vivo
[3] = tested on: Klebsiella pneumoniae lung inflammation model; assay type: in vivo, mouse
neutrophil FPR = details: read-out: Kd for neutrophil FPR; unaltered parent peptide, antagonist; cited from earlier work

## cFLFLF-PEG76-DOTA-^64Cu [cFLFLFK-PEG-^64Cu]
[1]
  Mean ratio of radioactivity in infected to control lungs: 3.8
[2]
  Blood half-life: approximately 1 hour
[2]; iv
  Blood clearance (biological) half-life: 55 ± 8 min
[3]; PET 18 hr post injection, n=4, mean ± SD
  Average lung SUV, control mice: 0.028 ± 0.003
[3]; PET 18 hr post injection, n=6, mean ± SD
  Average lung SUV, Klebsiella infected mice: 0.142 ± 0.054
[3]; mouse, in vivo
  Ligand half-life in the control lung: 4.8 ± 0.7 h
  Ligand half-life in the infected lung: 10.3 ± 2.9 h

## N-cinnamoyl-F-(D)L-F-(D)L-F [cFLFLF]
Neutrophil FPR
  Kd: 2 nM
